# Source: patent US20240180802A1, “USE OF NEUROSPORENE TO PROTECT THE SKIN FROM THE HARMFUL EFFECTS OF BLUE LIGHT” (DEINOVE, priority 2019, published 2024)
# What was measured:
# [1] = test system: HaCaT human keratinocytes; assay: Detection of ROSs in keratinocytes under irradiation with UVA radiation; format: cell-based; conditions: 1 h pretreatment, neurosporene 0 to 4 μg/ml or bacterial extract 0 to 15 μg/ml; UVA 20 J/cm2; CellROX deep red; FIGS. 1-2
# Description: (§1) HaCaT human keratinocytes were seeded into 96-well microplates in a proportion of 10 000 cells/well in DMEM medium supplemented with 10% of FCS (fetal calf serum) and incubated at 37° C. in 5% CO2 and 95% humidity for 24 hours. After this period of recovery, the cells were pretreated with either 43 μg/ml of α-tocopherol or with an increasing range of neurosporene (from 0 to 4 μg/ml) or with an increasing range of bacterial extract comprising neurosporene (from 0 to 15 μg/ml) for one hour. At the end of the pretreatment, 5 μM of “CellROX deep red” (a label which becomes fluorescent in the presence of reactive oxygen species (ROS)) and Hoechst (10 μg/ml) (which becomes fluorescent when it is bound to the DNA in the nucleus) were added to the medium. Immediately afterwards, the cells were treated either with UVA radiation (20 J/cm 2), or with a blue light (460 nm, 150 J/cm 2). The cells were then washed three times in 1×DPBS buffer and observed under a fluorescence microscope (CellInsight CX7, ThermoFisher). The fluorescence signals were then analyzed using the HCS Studio software (ThermoFisher) in order to quantify the ROSs produced in the cytosol.
# [2] = test system: HaCaT human keratinocytes; assay: Detection of ROSs in keratinocytes under irradiation with blue light; format: cell-based; conditions: 1 h pretreatment, neurosporene 0 to 4 μg/ml or bacterial extract 0 to 15 μg/ml; blue light 460 nm, 150 J/cm2; CellROX deep red; FIGS. 3-4
# Description: as §1
# [3] = test system: HaCaT human keratinocytes; assay: Wound healing test (scratched keratinocyte monolayer); format: cell-based; conditions: neurosporene 0.12 μg/ml; FCS-free DMEM; FIG. 6
# Description: HaCaT human keratinocytes were seeded into 96-well microplates in a proportion of 33 000 cells/well in DMEM medium supplemented with 10% of FCS and incubated at 37° C. in 5% CO2 and 95% humidity for 24 hours. Once confluence was reached, the cells were washed three times in FCS-free DMEM in order to remove from the wells the growth factors present in the complete medium. The keratinocyte monolayers were then scratched using a “WoundMaker” (Essen Biosciences) which makes it possible to injure cell monolayers in 96-well format. The cells were then washed three times with FCS-free DMEM in order to remove the cell debris. After washing, DMEM medium was added to the wells. EGF (Epidermal growth factor, ng/ml) used as positive control for injury filling or neurosporene (0.12 μg/ml) was added to the wells. The wound healing was observed by phase-contrast microscopy using an “Incucyte ZOOM” (Essen Biosciences), which is an automatic microscope maintained in a CO2 incubator. The images were then processed using the associated software.
# [4] = ABTS radical cation reduction test; format: physicochemical; conditions: 5 min at ambient temperature, expressed as α-tocopherol equivalent, FIG. 7
# Description: The ABTS test is based on the use of colored cationic radicals. In the presence of a molecule having an antioxidant power, the colored cationic radical is reduced and loses its color. Consequently, the antioxidant power of a molecule can be measured by the decoloration of the radical.
# A solution was prepared by mixing ABTS (7 mM), potassium persulfate (2.45 mM) and water (qs 5 ml) and incubated for 16 hours at ambient temperature in the dark. Next, a range of eight concentrations of neurosporene, lycopene, α-tocopherol, 9Z-β carotene, zeaxanthin, trolox and D-tocotrienol was dispensed into 96-well microplates before adding the ABTS solution prepared above. The microplates were then incubated at ambient temperature for 5 min, and the coloration was then analyzed at 250 nm using a microplate reader.
# [5] = test system: explants of human skin of phototype IV; assay: Quantification of the melanin in human skin explants irradiated with blue light; conditions: topical refined plant oil with 12.5 ppm neurosporene and 4 ppm other carotenoids, 5 mg/cm2 daily; blue light 447 nm, 202.6 J/cm2; Fontana-Masson staining; p-value<0.01
# Description: Explants of human skin of phototype IV were placed under culture conditions. After 24 h, three conditions were studied: a nontreated control, a topical treatment with refined plant oil alone or a topical treatment with a preparation of refined plant oil containing neurosporene (12.5 ppm of neurosporene and 4 ppm of a mixture of carotenoids, namely phytoene, lycopene, zeta-carotene, phytofluene and gamma-carotene). The products were applied every day (5 mg/cm 2) for 3 days. Each condition was carried out in triplicate.
# After 3 days of pretreatment, a blue light stress was applied by irradiation at the wavelength of 447 nm each day for 3 days, corresponding to a dose of 202.6 J/cm^2. After each irradiation, the explants were again and, depending on the conditions, not treated or treated either with plant oil alone or with the plant oil containing neurosporene.
# The melanin was then quantified after analysis of images taken with an epifluorescence microscope (Zeiss, Axio Imager Z1, ApoTome, Zen2 software blue edition) and staining according to the Fontana Masson method. The images were then analyzed on ImageJ. The area of melanin staining was standardized by the length of the basal lamina. The experiment was carried out in triplicate for each condition (nontreated, treatment with vegetable oil alone, treatment with vegetable oil enriched in neurosporene).
# [6] = test system: HaCaT human keratinocytes; assay: Assaying of ATP after irradiation with blue light; format: cell-based; conditions: 24 h pretreatment with dry bacterial extract in DMSO containing 0.05 μg/ml neurosporene; blue light 460 nm, 100 J/cm2; ATP standardized by live cells; FIG. 10
# Description: HaCaT human keratinocytes were seeded into 96-well microplates in a proportion of 20 000 cells/well in DMEM supplemented with 10% of fetal calf serum and incubated at 37° C. in 5% CO2 and 95% humidity for 24 hours. After a period of recovery, the cells were pretreated with a dry bacterial extract taken up in DMSO and containing 0.05 μg/ml of neurosporene and a mixture of carotenoids (phytoene, lycopene, zeta-carotene, phytofluene and gamma-carotene), the neurosporene being the major carotenoid of this extract. The cells were incubated at 37° C. in 5% CO2 and 95% humidity for 24 hours. Immediately afterwards, the cells were irradiated with blue light (460 nm, 100 J/cm 2). The cells were then washed three times in 1×PBS buffer and permeabilized with 2% triton at 25° C. for 20 min. The supernatants were then collected in order to quantify the ATP by luminescence (Invitrogen™ ATP Determination Kit, Molecular Probes™). The amount of ATP per well is standardized by the amount of live cells. Each condition was carried out in triplicate.
smiles,measurement,setting,value
"CC(C)=CCC/C(C)=C/C=C/C(C)=C/C=C/C(C)=C/C=C/C=C(C)/C=C/C=C(\C)CC/C=C(\C)CCC=C(C)C [neurosporene, 7,8-dihydro-ψ,ψ-carotene]",antioxidant power against UVA radiation (ROSs produced in the cytosol),[1],strong antioxidant power
same,antioxidant power against blue light (ROSs produced in the cytosol),[2],strong antioxidant power
same,improvement of wound healing (injury filling by cell confluence) compared to nontreated control,[3],35%
same,antioxidant power relative to reference molecule α-tocopherol,[4],two times greater
same,"melanin production induced by blue light, change compared to the control exposed without treatment",[5],−25%
same,effect on intracellular ATP reduction induced by blue light,[6],makes it possible to limit the ATP reduction induced by blue light
